Results on 23 compounds are retold here after patent US9278950B2, “Bicyclic aromatic carboxamide compounds useful as Pim kinase inhibitors” (Incyte Corporation, priority 2013, dated 2016).

What all share (type): biochemical
The target of one test is T1, Pim-3 (Homo sapiens, UniProt Q86V86).
T1 construct: purchased Millipore 14-738
Put plainly: Pim-3 kinase assay (Pim enzyme assays, Example A). Particulars: 1 mM ATP; read-out: Pim3 IC50. As to the method:
(§1) Pim-1 and Pim-3 kinase assays-20 μL reactions were run in white 384 well polystyrene plates dotted with 0.8 μL compound/DMSO in the assay buffer (50 mM Tris, pH 7.5, 0.01% Tween-20, 5 mM mgCl2, 0.01% BSA, 5 mM DTT), containing 0.05 μM Biotin-labeled BAD peptide substrate (AnaSpec 62269), 1 mM ATP, and […] (Pim-1, Invitrogen PV3503) or […] (Pim-3, Millipore 14-738) enzyme for 1 h at 25° C. Reactions were stopped by addition of 10 μL STOP Buffer (150 mM Tris, pH=7.5, 150 mM NaCl, 75 mM EDTA, 0.01% Tween-20, 0.3% BSA,) supplemented with Phospho-Bad (Ser 12) Antibody (Cell Signaling 9291) diluted 666-fold, and Streptavidin donor beads (PerkinElmer 6760002) along with Protein-A acceptor beads (PerkinElmer 6760137) at 15 μg/mL each. Supplementation of the STOP buffer with beads and stopping the reactions were done under reduced light. Prior to the stopping reactions STOP buffer with beads was preincubated for 1 h in the dark at room temperature. After stopping the reactions, plates were incubated for 1 h in the dark at room temperature before reading on a PHERAstar FS plate reader (BMG Labtech) under reduced light.

For the next test, the target named is T2, Pim2 (Homo sapiens, UniProt Q9P1W9).
T2 construct: purchased Invitrogen PV3649
Put plainly: Pim-2 kinase assay (Pim enzyme assays, Example A). As to conditions: 1 mM ATP; read-out: Pim2 IC50. As to the method: Pim-2 kinase assay—20 μL reactions were run in white 384 well polystyrene plates dotted with 0.8 μL compound/DMSO in the assay buffer (50 mM Tris, pH 7.5, 0.01% Tween-20, 5 mM mgCl2, 0.01% BSA, 5 mM DTT), containing 0.05 μM Fluorescein-labeled CREBtide peptide substrate (Invitrogen PV3508), 1 mM ATP, and 1 nM enzyme (Invitrogen PV3649) for 2 h at 25° C. Reactions were stopped by addition of 10 μL TR-FRET Dilution Buffer (Invitrogen PV3574) with 30 mM EDTA and 1.5 nM LanthaScreen Tb-CREB pSer133 antibody (Invitrogen PV3566). After 30 min. incubation at room temperature, plates were read on a PHERAstar FS plate reader (BMG Labtech).

The target in the next test is T3, Pim-1 (Homo sapiens, UniProt P11309).
T3 construct: purchased Invitrogen PV3503
Put plainly: Pim-1 kinase assay (Pim enzyme assays, Example A). Particulars: 1 mM ATP; read-out: Pim1 IC50. As for the experimental part: as §1

T2 sequence (Q9P1W9 whole entry): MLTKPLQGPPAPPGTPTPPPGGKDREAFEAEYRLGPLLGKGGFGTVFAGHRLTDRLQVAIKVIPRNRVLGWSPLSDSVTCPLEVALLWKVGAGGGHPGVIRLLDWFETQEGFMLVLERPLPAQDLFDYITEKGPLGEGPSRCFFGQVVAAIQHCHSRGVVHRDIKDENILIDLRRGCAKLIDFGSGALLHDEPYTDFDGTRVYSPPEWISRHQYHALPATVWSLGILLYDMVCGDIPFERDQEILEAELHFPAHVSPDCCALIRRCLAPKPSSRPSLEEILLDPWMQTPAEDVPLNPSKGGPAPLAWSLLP
T3 sequence (P11309 whole entry): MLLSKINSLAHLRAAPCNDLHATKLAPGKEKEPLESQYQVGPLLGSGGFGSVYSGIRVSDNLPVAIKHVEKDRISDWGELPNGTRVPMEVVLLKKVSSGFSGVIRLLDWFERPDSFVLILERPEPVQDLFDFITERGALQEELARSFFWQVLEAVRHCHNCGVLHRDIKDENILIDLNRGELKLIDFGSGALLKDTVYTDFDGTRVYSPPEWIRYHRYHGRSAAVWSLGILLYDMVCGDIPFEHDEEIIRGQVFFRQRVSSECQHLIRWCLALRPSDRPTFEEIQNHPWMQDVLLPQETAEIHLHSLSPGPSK

Consider `CCc1ccc2cc(N)c(C(=O)Nc3cnc4c(c3N3CCC[C@H](N)C3)CCC4O)nc2c1` (single isomer, unassigned) [22 isomer 2], for which the half-maximal inhibitory concentration (IC50) (usually the midpoint of a concentration-inhibition curve) on Pim-3 was not above 100 nM; at Pim2, more than 2000 nM; on Pim-1, not above 100 nM.

On to `Nc1cc2ccc(C3CCNCC3)cc2nc1C(=O)Nc1cnccc1N1CCC[C@H](N)C1` [Example 1, 3-Amino-N-{4-[(3S)-3-aminopiperidin-1-yl]pyridin-3-yl}-7-piperidin-4-ylquinoline-2-carboxamide], for which the IC50 at Pim-3 was not above 100 nM; on Pim2, 100 to 1000 nM; at Pim-1 it was not above 100 nM.

Regarding `Nc1cc2ccc(C3CCOCC3)cc2nc1C(=O)Nc1cnccc1N1CCC[C@H](N)C1` [Example 2, 3-Amino-N-{4-[(3S)-3-aminopiperidin-1-yl]pyridin-3-yl}-7-(tetrahydro-2H-pyran-4-yl)quinoline-2-carboxamide], the values for the IC50 on Pim-3, at Pim2 and on Pim-1 were not above 100 nM, 100 to 1000 nM and not above 100 nM, respectively.

For the compound `Nc1cc2ccc(-c3c(F)cccc3F)cc2nc1C(=O)Nc1cnccc1N1CCC[C@H](N)C1` [Example 3, 3-Amino-N-{4-[(3S)-3-aminopiperidin-1-yl]pyridin-3-yl}-7-(2,6-difluorophenyl)quinoline-2-carboxamide], the IC50 was not above 100 nM on Pim-3, 100 to 1000 nM on Pim2 and not above 100 nM on Pim-1.

In the case of `Cn1nccc1-c1ccc2cc(N)c(C(=O)Nc3cnccc3N3CCC[C@H](N)C3)nc2c1` [Example 4, 3-Amino-N-{4-[(3S)-3-aminopiperidin-1-yl]pyridin-3-yl}-7-(1-methyl-1H-pyrazol-5-yl)quinoline-2-carboxamide], the figures for the IC50 on Pim-3, at Pim2 and at Pim-1 were not above 100 nM, 1000 to 10000 nM and not above 100 nM, respectively.

Regarding `N#Cc1ccccc1-c1ccc2cc(N)c(C(=O)Nc3cnccc3N3CCC[C@H](N)C3)nc2c1` [Example 5, 3-Amino-N-{4-[(3S)-3-aminopiperidin-1-yl]pyridin-3-yl}-7-(2-cyanophenyl)quinoline-2-carboxamide], the IC50 at Pim-3, at Pim2 and on Pim-1 was not above 100 nM each time.

For `N#Cc1cccc(F)c1-c1ccc2cc(N)c(C(=O)Nc3cnccc3N3CCC[C@H](N)C3)nc2c1` [Example 7, 3-Amino-N-{4-[(3S)-3-aminopiperidin-1-yl]pyridin-3-yl}-7-(2-cyano-6-fluorophenyl)quinoline-2-carboxamide], the IC50 at Pim-3, on Pim2 and at Pim-1 was not above 100 nM each time.

`NC(=O)c1cccc(F)c1-c1ccc2cc(N)c(C(=O)Nc3cnccc3N3CCC[C@H](N)C3)nc2c1` [Example 8, 3-Amino-7-[2-(aminocarbonyl)-6-fluorophenyl]-N-{4-[(3S)-3-aminopiperidin-1-yl]pyridin-3-yl}quinoline-2-carboxamide]: the IC50 was not above 100 nM at Pim-3, more than 2000 nM on Pim2 and more than 40 nM on Pim-1.

On to `CC(C)c1ccc2cc(N)c(C(=O)Nc3cnccc3N3CCC[C@H](N)C3)nc2c1` [Example 9, 3-Amino-N-{4-[(3S)-3-aminopiperidin-1-yl]pyridin-3-yl}-7-isopropylquinoline-2-carboxamide], for which the IC50 at Pim-3, at Pim2 and on Pim-1 was not above 100 nM throughout.

On to `CCc1ccc2cc(N)c(C(=O)Nc3cnccc3N3CCC[C@H](N)C3)nc2c1` [Example 10, 3-Amino-N-{4-[(3S)-3-aminopiperidin-1-yl]pyridin-3-yl}-7-ethylquinoline-2-carboxamide], for which the IC50 on Pim-3, on Pim2 and on Pim-1 was not above 100 nM throughout.

Consider `Nc1cc2ccccc2nc1C(=O)Nc1cnccc1N1CCC[C@H](N)C1` [Example 11, 3-Amino-N-{4-[(3S)-3-aminopiperidin-1-yl]pyridin-3-yl}quinoline-2-carboxamide], for which the half-inhibitory concentration (IC50) at Pim-3 was not above 100 nM; on Pim2 it was 100 to 1000 nM; at Pim-1, not above 100 nM.

With `Nc1cc2ccc(Br)cc2nc1C(=O)Nc1cnccc1N1CCC[C@H](N)C1` [Example 12, 3-Amino-N-{4-[(3S)-3-aminopiperidin-1-yl]pyridin-3-yl}-7-bromoquinoline-2-carboxamide], the IC50 at Pim-3 was not above 100 nM; on Pim2 it was 100 to 1000 nM; at Pim-1, not above 100 nM.

Turning to `N#CCc1ccc2cc(N)c(C(=O)Nc3cnccc3N3CCC[C@H](N)C3)nc2c1` [Example 13, 3-Amino-N-{4-[(3S)-3-aminopiperidin-1-yl]pyridin-3-yl}-7-(cyanomethyl)quinoline-2-carboxamide], the IC50 on Pim-3 is not above 100 nM; on Pim2 it was 100 to 1000 nM; at Pim-1, not above 100 nM.

Turning to `CCc1cc2nc(C(=O)Nc3cnccc3N3CCC[C@H](N)C3)c(N)cc2cc1F` [Example 14, 3-Amino-N-{4-[(3S)-3-aminopiperidin-1-yl]pyridin-3-yl}-7-ethyl-6-fluoroquinoline-2-carboxamide], the results for the 50% inhibitory concentration (IC50) at Pim-3, at Pim2 and at Pim-1 were not above 100 nM, 100 to 1000 nM and not above 100 nM, respectively.

Turning to `CC(O)c1ccc2cc(N)c(C(=O)Nc3cnccc3N3CCC[C@H](N)C3)nc2c1` (stereo partly drawn) [Example 15, 3-Amino-N-{4-[(3S)-3-aminopiperidin-1-yl]pyridin-3-yl}-7-(1-hydroxyethyl)quinoline-2-carboxamide], the IC50 at Pim-3 is not above 100 nM; on Pim2, 100 to 1000 nM; at Pim-1, not above 100 nM.

Regarding `CC(C)(O)c1ccc2cc(N)c(C(=O)Nc3cnccc3N3CCC[C@H](N)C3)nc2c1` [Example 16, 3-Amino-N-{4-[(3S)-3-aminopiperidin-1-yl]pyridin-3-yl}-7-(1-hydroxy-1-methylethyl)quinoline-2-carboxamide], the figures for the half-inhibitory concentration (IC50) on Pim-3, on Pim2 and at Pim-1 were not above 100 nM, 100 to 1000 nM and not above 100 nM, respectively.

For the compound `Nc1cc2ccc(C(O)c3ccccc3)cc2nc1C(=O)Nc1cnccc1N1CCC[C@H](N)C1` (stereo partly drawn) [Example 17, 3-Amino-N-{4-[(3S)-3-aminopiperidin-1-yl]pyridin-3-yl}-7-[hydroxy(phenyl)methyl]quinoline-2-carboxamide], the IC50 at Pim-3 was not above 100 nM; at Pim2 it was more than 2000 nM; on Pim-1, not above 100 nM.

For `CC(F)c1ccc2cc(N)c(C(=O)Nc3cnccc3N3CCC[C@H](N)C3)nc2c1` (stereo partly drawn) [Example 18, 3-Amino-N-{4-[(3S)-3-aminopiperidin-1-yl]pyridin-3-yl}-7-(1-fluoroethyl)quinoline-2-carboxamide], the IC50 is not above 100 nM at Pim-3, 100 to 1000 nM at Pim2 and not above 100 nM at Pim-1.

Consider `Nc1cc2ccc(CN3CCCC3)cc2nc1C(=O)Nc1cnccc1N1CCC[C@H](N)C1` [Example 19, 3-Amino-N-{4-[(3S)-3-aminopiperidin-1-yl]pyridin-3-yl}-7-(pyrrolidin-1-ylmethyl)quinoline-2-carboxamide], for which the IC50 was not above 100 nM at Pim-3, more than 2000 nM at Pim2 and not above 100 nM at Pim-1.

As for `CN(C)Cc1ccc2cc(N)c(C(=O)Nc3cnccc3N3CCC[C@H](N)C3)nc2c1` [Example 20, 3-Amino-N-{4-[(3S)-3-aminopiperidin-1-yl]pyridin-3-yl}-7-[(dimethylamino)methyl]quinoline-2-carboxamide], the IC50 on Pim-3 was not above 100 nM; on Pim2 it was more than 2000 nM; at Pim-1 it was not above 100 nM.

As for `CCOc1ccc2cc(N)c(C(=O)Nc3cnccc3N3CCC[C@H](N)C3)nc2n1` [Example 25, 3-Amino-N-{4-[(3S)-3-aminopiperidin-1-yl]pyridin-3-yl}-7-ethoxy-1,8-naphthyridine-2-carboxamide], the IC50 on Pim-3 and at Pim-1 was not above 100 nM in each case.

With `CCOc1ccc2cc(N)c(C(=O)Nc3cnccc3N3C[C@@H](N)[C@H](O)[C@@H](C)C3)nc2n1` [Example 26, 3-Amino-N-{4-[(3R,4R,5S)-3-amino-4-hydroxy-5-methylpiperidin-1-yl]pyridin-3-yl}-7-ethoxy-1,8-naphthyridine-2-carboxamide], the IC50 at Pim-3 and at Pim-1 was not above 100 nM throughout.

In the case of `CCc1cc2nc(C(=O)Nc3cnccc3N3CCC[C@H](N)C3)c(N)cc2cn1` [Example 27, 3-Amino-N-{4-[(3S)-3-aminopiperidin-1-yl]pyridin-3-yl}-7-ethyl-1,6-naphthyridine-2-carboxamide], the IC50 at Pim-3 and on Pim-1 was not above 100 nM each time.
